Data taken from ChEMBL document CHEMBL5584334, “Discovery of a Covalent Inhibitor of Pro-Caspase-1 Zymogen Blocking NLRP3 Inflammasome Activation and Pyroptosis” (J Med Chem, 2024).
Calls of active or inactive are those of the source. No cut-off for these calls is given here.

How the values were obtained:
[1] = target: NACHT, LRR and PYD domains-containing protein 3 (Mus musculus) (UniProt Q8R4B8); assay: Inhibition of NLRP3 inflammasome activation in mouse BMDMs assessed as reduction in IL-1beta production at 0.5 to 2 uM pretreated with pam3CSK4 for 3 hrs followed by compound addition for 30 mins prior to cytosolic LPS stimulation for 16 hrs by ELISA; format: cell-based; settings: BMDM, dose 0.5-2 µM, time 16.5 hrs
THP-1 [2] = assay: Inhibition of p20 fragment of IL-1beta protein expression in LPS/nigericin stimulated human THP-1 cells supernatant at 0.5 to 2 uM by Western blotting analysis; format: functional, cell-based; settings: dose 0.5-2 µM
J774.A1 [3] = assay: Inhibition of pyroptosis in mouse J774.A1 cells assessed as reduction in number of annexin V and PI positive cells pretreated with LPS for 3 hrs followed by compound addition in presence of nigericin by flow cytometry analysis; format: functional, cell-based
[4] = Acute toxicity in Kunming mouse assessed as liver damage at 100 mg/kg, ip administered for 14 days; format: organism-based; settings: in vivo, 336 h, time 14 day
THP-1 [5] = assay: Inhibition of p20 fragment of caspase 1 protein expression in LPS/MSU stimulated human THP-1 cells supernatant by Western blotting analysis; format: functional, cell-based
Caspase-1 (Mus musculus) = target: T1, Caspase-1 (Mus musculus) (UniProt P29452); assay: Binding affinity to caspase-1 in LPS-induced mouse J774.A1 cells assessed as reduction in IL-1beta level at 0.5 uM preincubated with compound followed by nigericin addition; format: cell-based; settings: time 3-24 hrs, TDE = time-dependent effect
T1 sequence (whole entry): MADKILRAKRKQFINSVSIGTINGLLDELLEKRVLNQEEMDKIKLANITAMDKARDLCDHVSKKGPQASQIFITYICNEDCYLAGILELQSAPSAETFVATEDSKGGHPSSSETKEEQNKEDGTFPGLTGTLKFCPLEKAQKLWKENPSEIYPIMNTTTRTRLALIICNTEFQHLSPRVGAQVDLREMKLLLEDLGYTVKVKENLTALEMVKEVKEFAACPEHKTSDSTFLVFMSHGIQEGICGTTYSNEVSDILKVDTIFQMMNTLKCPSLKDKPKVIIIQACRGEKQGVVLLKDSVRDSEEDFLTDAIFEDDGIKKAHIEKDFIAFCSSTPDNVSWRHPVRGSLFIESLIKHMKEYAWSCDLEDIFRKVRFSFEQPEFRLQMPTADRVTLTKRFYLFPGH

Mus musculus [6] = assay: (§1) Anti-inflammatory activity in MSU/C18:0 free fatty acid induced Kunming mouse model of gouty arthritis assessed as reduction in joint swelling at 5 to 20 mg/kg, ip preadministered with compound for 30 mins followed by MSU/C18:0 free fatty acid injection and measured after 24 hrs; format: functional, organism-based; settings: dose 5-20 mg/kg, time 24.5 hrs
[7] = target: Interferon-inducible protein AIM2 (Mus musculus) (UniProt Q91VJ1); assay: Inhibition of AIM2 inflammasome activation in mouse BMDMs assessed as reduction in caspase-1 activation at 0.5 to 2 uM primed with LPS for 3 hrs followed by incubation with compound for 30 mins and later stimulated with poly (dA:dT) for 16 hrs; format: cell-based; settings: BMDM, dose 0.5-2 µM, time 16.5 hrs
HEK293T [8] = assay: Inhibition of recombinant caspae-1 C270A mutant (unknown origin) to GSDMD (unknown origin) interaction expressed in HEK293T cells; format: cell-based; settings: Homo sapiens
[9] = target: NACHT, LRR and PYD domains-containing protein 3 (Mus musculus) (UniProt Q8R4B8); assay: Inhibition of NLRP3 inflammasome activation in LPS primed Casp1 knockout mouse BMDM cells transfected with caspase-1 C285A mutant assessed as reduction in IL-1beta release at 2 uM preincubated for 30 mins followed by nigericin stimulation; format: cell-based
[10] = Acute toxicity in Kunming mouse assessed as heart damage at 100 mg/kg, ip administered for 14 days; format: organism-based; settings: in vivo, 336 h, time 14 day
[11] = target: NACHT, LRR and PYD domains-containing protein 3 (Mus musculus) (UniProt Q8R4B8); assay: Inhibition of NLRP3 inflammasome activation in mouse J774.A1 cells assessed as reduction in NLRP3 protein expression at 0.5 to 2 uM preincubated for 30 mins followed by LPS stimulation for 6 hrs by Western blotting analysis; format: cell-based; settings: dose 0.5-2 µM, time 6.5 hrs
Mus musculus [12] = assay: as §1, with “effect on pro-IL-1beta expression” for “reduction in joint swelling”, “hrs by Western blotting analysis” for “hrs”; format: functional, organism-based; settings: dose 5-20 mg/kg, time 24.5 hrs
[13] = system: Caspase-1 (Homo sapiens), P29466 [C397A]; assay: Binding affinity to recombinant caspase-1 C397A mutant (unknown origin) at 2 uM by SDS-PAGE analysis
[14] = target: NACHT, LRR and PYD domains-containing protein 3 (Homo sapiens) (UniProt Q96P20); assay: Inhibition of NLRP3 inflammasome activation in LPS/nigericin stimulated human THP-1 cells assessed as reduction in IL-1beta production at 1 uM pretreated with LPS for 3 hrs followed by compound addition for 30 mins prior to nigericin stimulation for 45 mins by ELISA; format: cell-based; settings: time 75.0 min
J774.A1 [15] = assay: Downregulation of IKKalpha/beta phosphorylation in mouse J774.A1 cells at 0.5 to 2 uM preincubated for 30 mins followed by LPS addition and measured after 2 hrs by Western blotting analysis; format: functional, cell-based; settings: dose 0.5-2 µM, time 2.5 hrs
HEK293T [16] = assay: Inhibition of recombinant caspae-1 C169A mutant (unknown origin) to GSDMD (unknown origin) interaction expressed in HEK293T cells; format: cell-based; settings: Homo sapiens
Mus musculus [17] = species: Mus musculus; assay: Inhibition of pain perception in MSU/C18:0 free fatty acid induced wild type mouse measured upto 24 hrs; format: functional, organism-based
[18] = target: NACHT, LRR and PYD domains-containing protein 3 (Mus musculus) (UniProt Q8R4B8); assay: Inhibition of NLRP3 inflammasome activation in LPS/nigericin stimulated mouse J774.A1 cells assessed as reduction in IL-18 production pretreated with LPS for 3 hrs prior to compound addition for 30 mins followed by nigericin addition and measured after 45 mins by ELISA; format: cell-based; settings: time 75.0 min
J774.A1 [19] = assay: Inhibition of pro-caspase 1 to RIP2 interaction in LPS stimulated mouse J774.A1 cells at 1 uM by immunoprecipitation method; format: cell-based
THP-1 [20] = assay: Inhibition of p20 fragment of IL-1beta protein expression in LPS/ATP stimulated human THP-1 cells supernatant by Western blotting analysis; format: functional, cell-based
J774.A1 [21] = assay: Inhibition of ASC to pro-caspase-1 interaction in LPS/nigericin stimulated mouse J774.A1 cells; format: cell-based
HEK293T [22] = assay: Inhibition of recombinant wild type caspae-1 (unknown origin) to GSDMD (unknown origin) interaction expressed in HEK293T cells; format: cell-based; settings: Homo sapiens

NACHT, LRR and PYD domains-containing protein 3 (Mus musculus), sequence (Q8R4B8 whole entry, the tested form may be a part): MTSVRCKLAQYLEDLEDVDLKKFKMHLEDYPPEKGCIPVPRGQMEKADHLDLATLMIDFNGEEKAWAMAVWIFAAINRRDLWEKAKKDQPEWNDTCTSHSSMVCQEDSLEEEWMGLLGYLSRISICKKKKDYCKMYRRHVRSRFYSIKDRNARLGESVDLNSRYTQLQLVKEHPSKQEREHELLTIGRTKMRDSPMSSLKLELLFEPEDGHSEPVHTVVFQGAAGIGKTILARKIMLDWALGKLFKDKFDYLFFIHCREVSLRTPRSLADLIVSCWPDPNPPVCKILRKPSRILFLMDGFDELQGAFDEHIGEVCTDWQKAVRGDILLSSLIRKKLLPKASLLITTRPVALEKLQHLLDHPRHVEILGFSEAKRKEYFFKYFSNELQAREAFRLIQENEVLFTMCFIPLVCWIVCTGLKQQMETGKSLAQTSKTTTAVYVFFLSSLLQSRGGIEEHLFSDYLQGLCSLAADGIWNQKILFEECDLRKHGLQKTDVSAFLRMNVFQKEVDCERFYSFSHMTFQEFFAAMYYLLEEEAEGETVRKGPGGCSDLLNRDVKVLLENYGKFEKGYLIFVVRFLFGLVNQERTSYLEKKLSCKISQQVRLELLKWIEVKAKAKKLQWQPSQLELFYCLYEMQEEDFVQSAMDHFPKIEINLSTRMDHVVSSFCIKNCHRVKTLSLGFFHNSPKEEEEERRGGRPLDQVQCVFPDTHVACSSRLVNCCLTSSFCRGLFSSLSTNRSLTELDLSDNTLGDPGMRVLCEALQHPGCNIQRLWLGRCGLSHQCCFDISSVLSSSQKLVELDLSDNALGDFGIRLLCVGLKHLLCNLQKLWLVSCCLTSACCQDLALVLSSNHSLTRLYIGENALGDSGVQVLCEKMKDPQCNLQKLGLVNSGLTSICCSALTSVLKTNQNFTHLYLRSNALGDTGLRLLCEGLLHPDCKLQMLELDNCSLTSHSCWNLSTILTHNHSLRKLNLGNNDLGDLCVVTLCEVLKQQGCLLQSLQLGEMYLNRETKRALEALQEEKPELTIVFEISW
Caspase-1 (Homo sapiens), P29466 [C397A], sequence (P29466 whole entry C397A, the tested form may be a part): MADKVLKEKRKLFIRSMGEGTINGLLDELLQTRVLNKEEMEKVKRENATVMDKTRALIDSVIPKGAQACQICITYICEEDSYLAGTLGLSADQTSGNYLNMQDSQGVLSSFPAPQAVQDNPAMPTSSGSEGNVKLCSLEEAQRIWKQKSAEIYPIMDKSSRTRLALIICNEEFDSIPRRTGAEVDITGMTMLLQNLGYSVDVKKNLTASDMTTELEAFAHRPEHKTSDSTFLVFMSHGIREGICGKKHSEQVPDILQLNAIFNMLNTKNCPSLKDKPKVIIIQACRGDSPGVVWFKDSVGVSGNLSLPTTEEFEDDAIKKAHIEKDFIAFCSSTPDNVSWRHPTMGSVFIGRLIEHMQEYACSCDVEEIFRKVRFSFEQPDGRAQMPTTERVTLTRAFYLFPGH
Interferon-inducible protein AIM2 (Mus musculus), sequence (Q91VJ1 whole entry): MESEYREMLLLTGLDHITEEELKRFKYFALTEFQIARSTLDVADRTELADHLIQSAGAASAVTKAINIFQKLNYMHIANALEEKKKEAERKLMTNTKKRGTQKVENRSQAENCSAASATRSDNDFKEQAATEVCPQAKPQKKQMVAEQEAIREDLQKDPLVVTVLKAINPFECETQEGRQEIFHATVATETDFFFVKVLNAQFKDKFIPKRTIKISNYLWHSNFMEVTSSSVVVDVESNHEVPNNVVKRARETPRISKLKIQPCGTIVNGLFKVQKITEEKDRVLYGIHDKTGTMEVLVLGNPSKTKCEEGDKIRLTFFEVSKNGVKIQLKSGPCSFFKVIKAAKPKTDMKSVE
NACHT, LRR and PYD domains-containing protein 3 (Homo sapiens), sequence (Q96P20 whole entry, the tested form may be a part): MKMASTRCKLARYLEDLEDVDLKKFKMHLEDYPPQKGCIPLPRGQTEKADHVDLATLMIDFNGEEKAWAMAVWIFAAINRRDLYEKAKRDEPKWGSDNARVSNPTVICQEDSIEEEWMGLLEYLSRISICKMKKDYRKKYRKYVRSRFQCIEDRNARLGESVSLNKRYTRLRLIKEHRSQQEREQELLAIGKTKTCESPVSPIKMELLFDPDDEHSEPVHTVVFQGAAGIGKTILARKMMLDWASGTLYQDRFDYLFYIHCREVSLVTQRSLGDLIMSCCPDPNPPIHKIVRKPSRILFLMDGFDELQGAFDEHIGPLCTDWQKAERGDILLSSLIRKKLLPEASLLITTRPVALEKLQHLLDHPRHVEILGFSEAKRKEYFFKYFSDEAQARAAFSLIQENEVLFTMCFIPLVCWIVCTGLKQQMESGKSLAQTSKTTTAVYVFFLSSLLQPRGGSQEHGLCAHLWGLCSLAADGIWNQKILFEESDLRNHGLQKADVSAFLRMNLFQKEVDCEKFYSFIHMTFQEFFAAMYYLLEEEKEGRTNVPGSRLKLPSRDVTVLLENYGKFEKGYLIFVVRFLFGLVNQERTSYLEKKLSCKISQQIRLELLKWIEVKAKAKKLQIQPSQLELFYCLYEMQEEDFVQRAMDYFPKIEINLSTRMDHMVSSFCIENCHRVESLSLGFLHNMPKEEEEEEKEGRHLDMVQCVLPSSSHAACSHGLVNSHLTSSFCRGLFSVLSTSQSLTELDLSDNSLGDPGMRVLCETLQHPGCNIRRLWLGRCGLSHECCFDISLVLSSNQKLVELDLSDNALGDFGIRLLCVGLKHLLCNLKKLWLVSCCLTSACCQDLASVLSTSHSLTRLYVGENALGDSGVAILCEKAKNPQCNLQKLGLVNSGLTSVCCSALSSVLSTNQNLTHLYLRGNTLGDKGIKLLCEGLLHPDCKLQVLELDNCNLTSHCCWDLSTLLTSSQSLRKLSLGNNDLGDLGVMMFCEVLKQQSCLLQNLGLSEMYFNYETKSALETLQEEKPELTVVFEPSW

COc1ccc2c(c1)[C@]1(C=C[C@H](N=C=S)C[C@H]1C(=O)OC(C)(C)C)C(=O)N2C(=O)OCc1ccccc1
inhibition [1]: Active | inhibition (THP-1 [2]): Active | inhibition (J774.A1 [3]): Active | Activity [4]: Non-Toxic | inhibition (THP-1 [5]): Active | Activity (Caspase-1 (Mus musculus)): Tde | Activity (Mus musculus [6]): Active | inhibition [7]: Active | inhibition (HEK293T [8]): Active | inhibition [9]: inactive | Activity [10]: Non-Toxic | inhibition [11]: Active | Activity (Mus musculus [12]): inactive | Activity [13]: inactive | inhibition [14]: Active | Activity (J774.A1 [15]): Active | inhibition (HEK293T [16]): Active | inhibition (Mus musculus [17]): Active | inhibition [18]: Dose-Dependent Effect | inhibition (J774.A1 [19]): Active | inhibition (THP-1 [20]): Active | inhibition (J774.A1 [21]): Active | inhibition (HEK293T [22]): Active
